Laboratory results taken from ChEMBL document CHEMBL1147273, “3-Dimethylallylindole: an antibacterial and antifungal metabolite from Monodora tenuifolia” (1986).
Values after ≈ are worked out from the molar mass of the structure shown. Active and inactive are the calls of the source. The calls are words filed in the database; no cut-off is given here.

Experiments:
Candida albicans [1] = assay: Antimicrobial activity against Candida albicans NIH B311 by towfold serial dilution method; type: functional
Escherichia coli = assay: Antimicrobial activity against Escherichia coli ATCC 10536 by towfold serial dilution method; type: functional, organism-based
Bacillus subtilis = assay: Antimicrobial activity against Bacillus subtilis ATCC 6633 by towfold serial dilution method; type: functional
[2] = test system: Trichophyton mentagrophytes; assay: Antimicrobial activity against Trichophyton mentagrophytes ATCC 9172 by towfold serial dilution method; type: functional
Candida albicans [3] = assay: Antimicrobial activity against Candida albicans ATCC 10231 by towfold serial dilution method; type: functional
Aspergillus niger = assay: Antimicrobial activity against Aspergillus niger ATCC 16888 by towfold serial dilution method; type: functional, organism-based
Pseudomonas aeruginosa = assay: Antimicrobial activity against Pseudomonas aeruginosa ATCC 15442 by towfold serial dilution method; type: functional, organism-based
Helminthosporium = assay: Antimicrobial activity against Helminthosporium sp. NRRL 4671 by towfold serial dilution method; type: functional
[4] = test system: Mycolicibacterium smegmatis; assay: Antimicrobial activity against Mycobacterium smegmatis ATCC 607 by towfold serial dilution method; type: functional
Saccharomyces cerevisiae = assay: Antimicrobial activity against Saccharomyces cerevisiae ATCC 9763 by towfold serial dilution method; type: functional
Trametes sanguinea = assay: Antimicrobial activity against Pycnoporus sanguineus ATCC 14622 by towfold serial dilution method; type: functional
Candida albicans [5] = assay: Antimicrobial activity against Candida albicans WH by towfold serial dilution method; type: functional
Cryptococcus neoformans = assay: Antimicrobial activity against Cryptococcus neoformans ATCC 32264 by towfold serial dilution method; type: functional
Staphylococcus aureus = assay: Antimicrobial activity against Staphylococcus aureus ATCC 6538 by towfold serial dilution method; type: functional

CC(C)=CCc1c[nH]c2ccccc12
MIC (Candida albicans [1]): 25 µg/mL (≈ 135 µM)
Activity (Escherichia coli): inactive
MIC (Bacillus subtilis): 12.5 µg/mL (≈ 67.5 µM)
MIC [2]: 1.56 µg/mL (≈ 8.42 µM)
MIC (Candida albicans [3]): 25 µg/mL (≈ 135 µM)
Activity (Aspergillus niger): inactive
Activity (Pseudomonas aeruginosa): inactive
MIC (Helminthosporium): 0.78 µg/mL (≈ 4.21 µM)
MIC [4]: 3.12 µg/mL (≈ 16.8 µM)
MIC (Saccharomyces cerevisiae): 12.5 µg/mL (≈ 67.5 µM)
MIC (Trametes sanguinea): 12.5 µg/mL (≈ 67.5 µM)
MIC (Candida albicans [5]): 25 µg/mL (≈ 135 µM)
MIC (Cryptococcus neoformans): 12.5 µg/mL (≈ 67.5 µM)
MIC (Staphylococcus aureus): 12.5 µg/mL (≈ 67.5 µM)
